For one molecule, Km results are on record in article PMC3981761, “A New Assay for Determining Ganglioside Sialyltransferase Activities Lactosylceramide-2,3-Sialyltransferase (SAT I) and Monosialylganglioside-2,3-Sialyltransferase (SAT IV)” (PLoS ONE, 2014).

Structures are written as SMILES.

This assay deals with T1, recombinant α2,3-(O)-sialyltransferase (EC 2.4.99.4), rat liver.
T1 construct: gene St3gal2; recombinant commercial enzyme (EMD Bioscience), originating from rat liver
The assay is described as follows: HPLC with fluorescence detection of BODIPY-GD1a formed. The note with it: BODIPY-GM1 constant at 13 μM, pH 6, Mes, Triton, 37°C, 1 h; donor substrate. Type of assay: biochemical.

In general, Km refers to the substrate concentration at which the rate is half of its maximum. `CC(=O)N[C@H]1[C@H]([C@H](O)[C@H](O)CO)O[C@](OP(=O)(O)OC[C@H]2O[C@@H](n3ccc(N)nc3=O)[C@H](O)[C@@H]2O)(C(=O)O)C[C@@H]1O` [CMP-NeuAc]: the Km is 23.4 ± 0.1 µM.
